This assay relates to mice. Kind of assay: Y-maze test in mice given scopolamine. In kind it is in vivo, mouse. As to conditions: based on total motor activity and correct alternation rate, scopolamine-treated mice.

Structures are written as SMILES.

Description: The Y-maze test was performed in mice divided into three types A, B, and C. The mice were placed in a Y-maze and allowed to move freely for 6 minutes. The sequence of entries into each arm and the total number of arm entries were measured since mice have the habit of always choosing a new arm of the maze. In order to evaluate the degree of memory impairment, the correct alternation rate was calculated based on the percentage of correct arm entries out of the total number of arm entries. Mice of types A, B, and C received drugs as shown below. […] The total number of entries and percentage of correct alternations were analyzed based on data obtained from the Y-maze test. Four mice from each type were examined. The following animals were used in the experiments. • Species: mouse • Strain: Crj:ICR • Sex: male • Age in weeks: 4

For `COc1ccccc1OCC(O)COC(N)=O` (stereo not shown) [Methocarbamol, methocarbamol], the “Effect on cognitive function (in words)” value is recorded as “had the effect of improving cognitive function”.
